This passage reports IC50 and Kd results from patent US20240279221A1, “HETEROCYCLIC COMPOUNDS AND METHODS OF USE” (Schrödinger, Inc., priority 2021, published 2024).

The target in test [1] is SOS1:KRAS (G12C) interaction (Homo sapiens (Human), UniProt Q07889). The experiment in a line: SOS1-KRas(G12C) FRET Assay. Particulars: 0.5 nM His10-SOS1 (res. 564-1049), 2.5 nM GST-KRAS (res. 1-169, G12C); read-out: SOS-KRas(G12C) FRET IC50. The class given is binding. Put shortly:
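TR-FRET measured binding of His10-SOS1 (res. 564-1049, 0.5 nM) to GST-KRAS G12C (res. 1-169, 2.5 nM), with anti-GST-Eu(K) and anti-6His-XL665 labels, in PBS with BSA, MgCl2, KF and DTT; 0.5% DMSO. Compound and SOS1 were pre-incubated 15 min at 25° C, KRAS was added, and the plate was read at 665/615 nm after 2 h at RT. IC50 and Hill slope came from non-linear regression.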

For test [2], the target named is human SOS1 (Homo sapiens (Human), UniProt Q07889). The experiment in a line: Surface Plasmon Resonance (SPR) SOS1 Binding Assay. Particulars: biotinylated SOS1 (res. 564-1049), 25° C., kinetic or steady state fit, read-out: KD for hSOS1. The method, then: Binding to SOS1 was measured using a SPR assay with purified recombinant human SOS1 substrate (res. 564-1049 with N-terminal Avi tag; purified and biotinylated based on Hillig, et al., Proc Natl Acad Sci USA (2019); 116(7):2551-2560). SPR measurements were performed on a Biacore 8K SPR instrument (GE Healthcare, Sweden). Assays were performed at 25° C. using Series S SA sensor chips pre-coated with streptavidin (GE Healthcare, Cat. BR100531). Biotinylated SOS1 diluted in sample buffer (20 mM Tris HCl, 150 mM NaCl, 1 mM DTT, 0.05% TWEEN 20, 1 mM MgCl2, pH 8.0) was captured to one flow cell of the chip to about 3,000 resonance units (RU) using sample buffer supplemented with 5% DMSO as a running buffer. Serial dilutions of the assayed compounds in the running buffer at 100, 50 or 0.5 μM were injected for 60 s at a flow rate of 30 μL/min and association phases were recorded. Dissociation of the samples was monitored for 600 s. Data processing was performed using Biacore Insight Software (Biacore, GE Healthcare). Sensorgrams recorded on a SA flow cell without captured protein were subtracted from sensorgrams recorded on the SOS1 surface. Blank injections of running buffer were used for double referencing and solvent correction was applied to all sample sensorgrams to correct for buffer mismatches. KDs were estimated using a kinetic or steady state, where applicable, fitting model describing a reversible equilibrium with 1:1 binding between SOS1 and the compound.
Chain of human SOS1 (Q07889 564-1049): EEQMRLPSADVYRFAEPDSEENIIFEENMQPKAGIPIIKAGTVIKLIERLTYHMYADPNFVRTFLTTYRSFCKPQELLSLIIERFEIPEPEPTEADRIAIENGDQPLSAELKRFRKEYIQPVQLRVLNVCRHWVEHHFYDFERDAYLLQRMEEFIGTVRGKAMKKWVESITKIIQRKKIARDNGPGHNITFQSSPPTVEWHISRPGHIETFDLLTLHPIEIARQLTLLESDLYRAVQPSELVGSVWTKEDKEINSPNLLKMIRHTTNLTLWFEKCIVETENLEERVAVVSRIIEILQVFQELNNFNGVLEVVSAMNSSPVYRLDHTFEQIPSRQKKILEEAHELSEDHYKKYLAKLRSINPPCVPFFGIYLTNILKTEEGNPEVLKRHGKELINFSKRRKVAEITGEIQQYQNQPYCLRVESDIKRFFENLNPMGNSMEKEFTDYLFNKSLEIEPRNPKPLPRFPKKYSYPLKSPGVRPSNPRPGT

Chain of SOS1:KRAS (G12C) interaction (Q07889 564-1049, stated change not applied): as the sequence (Q07889 564-1049) above

Usually IC50 stands for the concentration at which inhibition is half-maximal. As a reminder, the Kd is a measure of binding affinity in units of concentration. With `COc1c(=O)n(C2CCOCC2)cc2c(N[C@H](C)c3cccc(C(F)(F)C(C)(C)O)c3F)nn(C)c(=O)c12` [Example 41, (R)-4-((1-(3-(1,1-difluoro-2-hydroxy-2-methylpropyl)-2-fluorophenyl)ethyl)amino)-8-methoxy-2-methyl-6-(tetrahydro-2H-pyran-4-yl)-2,6-dihydropyrido[3,4-d]pyridazine-1,7-dione], in test [1], the IC50 turned out to be 27.9 nM. The Kd in test [2] is 14 nM.
`Cc1c([C@@H](C)Nc2nn(C)c(=O)c3cc(=O)n(C45CC(C4)C5)cc23)cccc1C(F)(F)F` [Example 16, (R)-6-(bicyclo[1.1.1]pentan-1-yl)-2-methyl-4-((1-(2-methyl-3-(trifluoromethyl)phenyl)ethyl)amino)-2,6-dihydropyrido[3,4-d]pyridazine-1,7-dione]: the IC50 in test [1] is 235 nM. In addition, the Kd in test [2] was determined as 84 nM.
With `Cc1c([C@@H](C)Nc2nn(C)c(=O)c3cc(=O)n(C4CC4)cc23)cccc1C(F)(F)F` [Example 2, (R)-6-cyclopropyl-2-methyl-4-((1-(2-methyl-3-(trifluoromethyl)phenyl)ethyl)amino)-2,6-dihydropyrido[3,4-d]pyridazine-1,7-dione], the IC50 in test [1] amounted to 328 nM. Further, the Kd in test [2] was 57 nM.
Regarding `C[C@H](Nc1nn(C)c(=O)c2cc(=O)n(C3CCOCC3)cc12)c1cccc2c1CCC2(F)F` [Example 68, (S)-4-((1-(1,1-difluoro-2,3-dihydro-1H-inden-4-yl)ethyl)amino)-2-methyl-6-(tetrahydro-2H-pyran-4-yl)pyrido[3,4-d]pyridazine-1,7(2H,6H)-dione], the IC50 in test [1] worked out at 1710 nM. Moreover, in test [2], the Kd came to 1490 nM.
Regarding `C[C@@H](Nc1nn(C)c(=O)c2cc(=O)n(C3CCOCC3)cc12)c1cccc(C(F)(F)[C@@H]2CCCO2)c1F` (single isomer, unassigned) [Example 45], the IC50 in test [1] was 23.4 nM. In test [2], the Kd amounted to 10 nM.
As to `COC1(C)CN(CCn2nc(N[C@H](C)c3cccc(C(F)(F)F)c3C)c3cn(C4CC4)c(=O)cc3c2=O)C1` [Example 78, (R)-6-cyclopropyl-2-(2-(3-methoxy-3-methylazetidin-1-yl)ethyl)-4-((1-(2-methyl-3-(trifluoromethyl)phenyl)ethyl)amino)-2,6-dihydropyrido[3,4-d]pyridazine-1,7-dione], the IC50 in test [1] is 89 nM. In test [2], the Kd is 55 nM.
For `Cc1c([C@@H](C)Nc2nn(C)c(=O)c3c(C)c(=O)n(C4CC4)cc23)cccc1C(F)(F)F` [Example 7, (R)-6-cyclopropyl-2,8-dimethyl-4-((1-(2-methyl-3-(trifluoromethyl)phenyl)ethyl)amino)-2,6-dihydropyrido[3,4-d]pyridazine-1,7-dione], the half-inhibitory concentration (IC50) in test [1] came out at 1050 nM. For the same compound, the Kd in test [2] is 259 nM.
For `Cc1c([C@@H](C)Nc2nn(C)c(=O)c3cc(=O)n(C4(C)CC4)cc23)cccc1C(F)(F)F` [Example 15, (R)-2-methyl-4-((1-(2-methyl-3-(trifluoromethyl)phenyl)ethyl)amino)-6-(1-methylcyclopropyl)-2,6-dihydropyrido[3,4-d]pyridazine-1,7-dione], the IC50 in test [1] amounted to 198 nM. For the same compound, the Kd in test [2] was determined as 40 nM.
As for `C[C@@H](Nc1nn(C)c(=O)c2cc(=O)n([C@@]3(C)CCOC3)cc12)c1cccc(C(F)F)c1F` (single isomer, unassigned) [Example 52], the IC50 in test [1] came to 272 nM. Besides, the Kd in test [2] was 76 nM.
Regarding `C[C@@H](Nc1nn(C)c(=O)c2cc(=O)n([C@@H]3CCCOC3)cc12)c1cccc(C(F)F)c1F` (single isomer, unassigned) [Example 39], in test [1], the IC50 is 160 nM. Besides, the Kd in test [2] is 43 nM.
For `C[C@H](Nc1nn(C)c(=O)c2cc(=O)n(C3CC3)cc12)c1ccc2c(C#N)nn(C)c2c1` (single isomer, unassigned) [Example 26] the same measures were 100000 nM and above 50000 nM.
For `C[C@@H](Nc1nn(C)c(=O)c2cc(=O)n(C3CC3)cc12)c1cccc(C(F)F)c1F` [Example 17, (R)-6-cyclopropyl-4-((1-(3-(difluoromethyl)-2-fluorophenyl)ethyl)amino)-2-methyl-2,6-dihydropyrido[3,4-d]pyridazine-1,7-dione] the same measures were 248 nM and 31 nM.
Consider `C[C@@H](Nc1nn(C)c(=O)c2cc(=O)n([C@]3(C)CCOC3)cc12)c1cccc(C(F)F)c1F` (single isomer, unassigned) [Example 53], for which the IC50 in test [1] was 30.3 nM. The Kd in test [2] came out at 7 nM.
For `C[C@@H](Nc1nn(C)c(=O)c2cc(=O)n(C3(C(F)(F)F)CC3)cc12)c1cccc(C(F)F)c1F` [Example 71, (R)-4-((1-(3-(difluoromethyl)-2-fluorophenyl)ethyl)amino)-2-methyl-6-(1-(trifluoromethyl)cyclopropyl)-2,6-dihydropyrido[3,4-d]pyridazine-1,7-dione] the same measures were 69.8 nM and 31 nM.
In the case of `Cc1c([C@@H](C)Nc2nn(C)c(=O)c3c(N)c(=O)n(C4CC4)cc23)cccc1C(F)(F)F` [Example 12, (R)-8-amino-6-cyclopropyl-2-methyl-4-((1-(2-methyl-3-(trifluoromethyl)phenyl)ethyl)amino)-2,6-dihydropyrido[3,4-d]pyridazine-1,7-dione], the IC50 in test [1] worked out at 1330 nM. For the same compound, the Kd in test [2] came to 290 nM.
Regarding `C[C@@H](Nc1nn(C)c(=O)c2cc(=O)n([C@H]3CCCOC3)cc12)c1cccc(C(F)F)c1F` (single isomer, unassigned) [Example 38], the IC50 in test [1] worked out at 211 nM. Besides, the Kd in test [2] came to 43 nM.
In the same order, the values of `C[C@@H](Nc1nn(C)c(=O)c2cc(=O)n(C34CC(N5CCOCC5)(C3)C4)cc12)c1cccc(C(F)F)c1F` [Example 50, (R)-4-((1-(3-(difluoromethyl)-2-fluorophenyl)ethyl)amino)-2-methyl-6-(3-morpholinobicyclo[1.1.1]pentan-1-yl)-2,6-dihydropyrido[3,4-d]pyridazine-1,7-dione] are 54.4 nM and 29 nM.
In the case of `Cc1c([C@@H](C)Nc2nn(CCN3CC(C)(F)C3)c(=O)c3cc(=O)n(C4CC4)cc23)cccc1C(F)(F)F` [Example 79, (R)-6-cyclopropyl-2-(2-(3-fluoro-3-methylazetidin-1-yl)ethyl)-4-((1-(2-methyl-3-(trifluoromethyl)phenyl)ethyl)amino)-2,6-dihydropyrido[3,4-d]pyridazine-1,7-dione], the IC50 in test [1] stood at 300 nM. Moreover, in test [2], the Kd worked out at 124 nM.
For `C[C@@H](Nc1nn(C)c(=O)c2cc(=O)n(C3CCOCC3)cc12)c1cccc(C(C)(F)F)c1F` [Example 36, (R)-4-((1-(3-(1,1-difluoroethyl)-2-fluorophenyl)ethyl)amino)-2-methyl-6-(tetrahydro-2H-pyran-4-yl)-2,6-dihydropyrido[3,4-d]pyridazine-1,7-dione] the same measures were 33.3 nM and 16 nM.
On to `Cc1c(=O)n(C2(C(F)F)CC2)cc2c(N[C@H](C)c3cccc(C(F)F)c3F)nn(C)c(=O)c12` [Example 74, (R)-4-((1-(3-(difluoromethyl)-2-fluorophenyl)ethyl)amino)-6-(1-(difluoromethyl)cyclopropyl)-2,8-dimethyl-2,6-dihydropyrido[3,4-d]pyridazine-1,7-dione], for which the IC50 in test [1] was 91 nM. Besides, the dissociation constant (Kd) in test [2] stood at 69 nM.
As for `C[C@@H](Nc1nn(C)c(=O)c2cc(=O)n(C3CCOCC3)cc12)c1cccc(C(F)(F)C(C)(C)O)c1F` [Example 40, (R)-4-((1-(3-(1,1-difluoro-2-hydroxy-2-methylpropyl)-2-fluorophenyl)ethyl)amino)-2-methyl-6-(tetrahydro-2H-pyran-4-yl)-2,6-dihydropyrido[3,4-d]pyridazine-1,7-dione], in test [1], the IC50 was found to be 21.1 nM. For the same compound, the Kd in test [2] worked out at 9 nM.
In the same order, the values of `C[C@@H](Nc1nn(C)c(=O)c2cc(=O)n([C@@H]3CCOC(C)(C)C3)cc12)c1cccc(C(F)F)c1F` (single isomer, unassigned) [Example 84] are 229 nM and 28 nM.
As for `C[C@@H](Nc1nn(C)c(=O)c2cc(=O)n([C@@H]3CCOC[C@H]3F)cc12)c1cccc(C(F)F)c1F` (single isomer, unassigned) [Example 31], the IC50 in test [1] came to 146 nM. The Kd in test [2] was found to be 45 nM.
Take `CCOc1c(=O)n(C2CC2)cc2c(N[C@H](C)c3cccc(C(F)(F)F)c3C)nn(C)c(=O)c12` [Example 19, (R)-6-cyclopropyl-8-ethoxy-2-methyl-4-((1-(2-methyl-3-(trifluoromethyl)phenyl)ethyl)amino)-2,6-dihydropyrido[3,4-d]pyridazine-1,7-dione]: in test [1], the IC50 worked out at 806 nM. Also, the Kd in test [2] amounted to 161 nM.
